Results reported in article PMC7318222, “A Family of Water‐Immiscible, Dipolar Aprotic, Diamide Solvents from Succinic Acid” (Chemsuschem, 2020).

What follows are compounds tested against T1, PPARα (Homo sapiens, UniProt Q07869) (assay: PPARα CALUX reporter gene assay). Details: PC10, 24 h exposure.
T1 construct: expression construct for the full-length human receptor under investigation; expressed in transfected cells; host or cells: human U2-OS cells (ATCC HTB-96), stably transfected
T1 sequence (Q07869 1-468): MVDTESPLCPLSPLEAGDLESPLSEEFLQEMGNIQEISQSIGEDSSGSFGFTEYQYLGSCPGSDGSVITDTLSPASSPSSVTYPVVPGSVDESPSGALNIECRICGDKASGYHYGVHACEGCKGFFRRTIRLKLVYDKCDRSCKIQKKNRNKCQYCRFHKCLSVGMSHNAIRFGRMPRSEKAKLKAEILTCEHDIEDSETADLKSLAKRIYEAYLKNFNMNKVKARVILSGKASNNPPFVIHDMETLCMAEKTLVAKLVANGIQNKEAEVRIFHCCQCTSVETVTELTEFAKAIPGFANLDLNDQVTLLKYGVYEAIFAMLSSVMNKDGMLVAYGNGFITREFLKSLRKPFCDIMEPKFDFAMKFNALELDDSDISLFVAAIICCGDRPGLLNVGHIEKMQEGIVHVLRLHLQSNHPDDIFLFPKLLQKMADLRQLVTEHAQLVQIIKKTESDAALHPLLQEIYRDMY
Type: cell-based
Design: key: –: no effect observed up to the highest test concentration
Text: Succinyl chloride (2 M soln. in dichloromethane), N-methylbutylamine 90%, N-ethylbutylamine 95%, Dibutylamine 99% were purchased from TCI chemicals. K60 silica was purchased from Merck chemicals. Succinic acid ≥99.0%, N-methylpyrrolidinone 99.0%, 1-bromooctane ≥97.0%, 1-methylimidazole 99.0%, iodobenzene 99.9%, methylacrylate 99.9%, palladium(II) acetate ≥99.9% trace metals basis, triethylamine ≥99.0%, trimesic acid 95%, copper(II) nitrate trihydrate ≥99.0%, 2-methylimidazole 99.0%, zinc(II) nitrate hexahydrate ≥99.0%, para-cymene 99.0%, 1,4-dioxane 99.8% (anhydrous), 4-nitroaniline ≥99.0%, 1-octanol ≥99.0%, diglyme ≥99.0%, DMSO-d6 (99.8% D) and chloroform-d (99.8% D) were purchased from Sigma-Aldrich. Toluene ≥99.0%, hexane ≥99.5%, DCM ≥99.5%, chloroform ≥99.5%, DMSO ≥99.0% were purchased from VWR. N,N-diethyl-4-nitroaniline ≥98.0% was purchased from Alfa Aeser. Cyrene was supplied by Circa group. N-butylpyrrolidinone was supplied by Eastman chemicals. N,N-dimethylformamide 99.9% and N,N-dimethylacetamide 99.9% were purchased from Fischer. The flakes of Ultrason® E3020 P Polyarylethersulfone of 55,000 Da were obtained from INGE.BASF, Germany. The CALUX cell lines have been described previously.[1] They are based on human U2-OS cells (ATCC, HTB-96) stably transfected with an expression construct for the full-length human receptor under investigation, and a reporter construct consisting of multimerized responsive elements for the cognate receptor coupled to a minimal promoter element (TATA) and a luciferase gene. Cells were maintained as described previously,[2] using cell culture media and supplements from Fisher Scientific as described in the experimental procedures section. […]
In vitro reporter gene assays
The automated CALUX assays were carried out similarly as described earlier,[12] with some adaptations. In brief, the assay was performed in CO2 independent medium (Fisher Scientific, […]
supplement (Fisher Scientific, 11574466), 10 U/mL penicillin and 10 µg/mL streptomycin. A cell suspension in assay medium was made of 1 × 10^5cells/mL, and white 384-wells plates were seeded with 30 µl cell suspension/well. After 24 h, exposure medium was prepared. A dilution series in 0.5log unit increments of each test compound (in DMSO) was added to a 96-wells plate containing assay medium (2% v/v). Of this exposure mixture, 30 µl was added to the assay plates containing the CALUX cells, resulting in a final DMSO concentration of 1%. Additionally, DMSO blanks and a full dose response curve of the relevant reference compound were included on each plate. All samples were tested in triplicate. The preparation of the compound dilution series as well as the exposure of the cells were performed on a Hamilton StarLET liquid handling robot coupled to a Cytomat incubator.
Directly after exposure, plates were sealed with non-breathing plate seals (Plate sealer, easy seal transparent; Greiner-Bio-One, 676001). After 24 h the exposure medium was removed using an EL406 washer-dispenser (BioTek) and 10 µl/well triton lysisbuffer was added by the EL406.
Subsequently, the luciferase signal was measured in a luminometer (InfinitePro coupled to a Connect Stacker, both TECAN). In order to be able to detect receptor antagonism, several assays were also performed in antagonistic mode. […]
The luminometer data was analysed as follows; the average of the triplicate wells was determined, and the average blank (DMSO) value was subtracted. […]

| SMILES | LEC PPARα |
| --- | --- |
| CN1CCCC1=O [NMP, N‐methyl‐2‐pyrrolidone, reference compound] | – |
| CCCCN1CCCC1=O [NBP, N‐Butylpyrrolidinone, reference compound] | – |

Now from value to compound:

| LEC PPARα | SMILES |
| --- | --- |
| – | CCCCN(CC)C(=O)CCC(=O)N(CC)CCCC [EBSA, N,N′‐diethyl‐N,N′‐dibutylsuccindiamide] |
| – | CCCCN(C)C(=O)CCC(=O)N(C)CCCC [MBSA, N,N′‐dimethyl‐N,N′‐dibutylsuccindiamide] |
| – | CCCCN(CCCC)C(=O)CCC(=O)N(CCCC)CCCC [TBSA, N,N,N′,N′‐tetrabutylsuccindiamide] |
